Test [1] concerns the target T1, N-type calcium channel (NTCC) (Homo sapiens, UniProt Q00975).
T1 construct: host or cells: IMR32 cells differentiated with dibutyryl cAMP and bromodeoxyuridine
The test can be described thus: FLIPR calcium mobilization assay for N-type calcium channel (differentiated IMR32 cells). Type of test: cell-based. The settings on record: calcium mobilization in vitro assay, N-type calcium channel blockers. In a few lines:
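Human IMR32 cells differentiated 8 days (1 mM dibutyryl cAMP, 2.5 μM BrdU), pre-stimulated 1 h with 90 mM KCl plus compound (~846 pM–17 μM) and 5 μM nitrendipine, Fluo-4 loaded. FLIPR read basal fluorescence 315 s, then 90 mM KCl agonist added and fluorescence recorded 45 s; non-linear regression.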

Test [2] has as its target T2, L-type calcium channel (LTCC) subunits (α1c, α2δ, and β1) (Rattus norvegicus, UniProt P22002).
T2 construct: expressed in transfected cells; pcDNA6.2DEST for α1c, pcDNA3.2DEST for β1, pcDNA3.1-Zeo for α2δ
The test is described as follows: FLIPR calcium mobilization assay for L-type calcium channel (HEK293 cells expressing recombinant rat LTCC subunits). The settings on record: calcium mobilization in vitro assay, L-type calcium channel blockers. The test is classed as cell-based. The procedure: Recombinant human embryonal kidney cells (HEK293, ATCC) stably transfected with either N-type calcium channel (NTCC) subunits (α1b, α2δ, and β3) or L-type calcium channel (LTCC) subunits (α1c, α2δ, and β1) were routinely cultured in growth medium consisting of Dulbecco's Modified Eagles Medium containing 10% FBS, 100 U/mL penicillin, 100 μg/mL streptomycin, 4 mM L-glutamine, 500 μg/mL geneticin (G418), 20 μg/mL Blasticidin S (InVivogen, San Diego, Calif.) and 500 μg/mL zeocin (InVivogen).
FLIPR Calcium Mobilization Assay for L-type Calcium Channel. One day prior to performing this assay, HEK293 cells stably expressing recombinant rat L-type calcium channel (LTCC) subunits (α1c, α2δ, and β1) were trypsinized, then seeded on poly-D-lysine-coated 96-well clear-bottom black plates (Becton Dickinson, Franklin Lakes, N.J.) at 75,000 cells/well. On the day of the assay, the plates were washed with LTCC wash buffer (127 mM NaCl, 2 mM MgCl2, 700 μM NaH2PO4, […], 5 mM NaHCO3, 8 mM HEPES, 10 mM glucose, pH 7.4), then loaded with 0.1 mL of LTCC wash buffer containing Fluo-4 (3 μM final concentration, Molecular Probes, Eugene, Oreg.). After 1 hour, the cells were washed with 0.1 mL LTCC wash buffer and resuspended in 0.05 mL LTCC assay buffer (same composition as LTCC wash buffer). Plates were then transferred to a FLIPR^96 for assay. The FLIPR measured basal Fluo-4 fluorescence for 15 seconds, then added 0.05 mL of each compound tested diluted in LTCC assay buffer at final concentrations ranging from about 846 pM to about 17 μM. Fluo-4 fluorescence was then measured for 5 minutes. 0.1 mL KCl agonist dissolved in LTCC assay buffer was then added to the cells to produce a final concentration of 90 mM KCl, and fluorescence was measured for another 45 seconds. Data were collected over the entire time course and analyzed using Excel, Graph Pad Prism, or an in-house regression analysis software.
Cloning of N- and L-type calcium channel subunit open reading frame cDNAs. Five cDNAs encoding subunits of the rat N- or L-type calcium channels were cloned by PCR amplification in order to reconstitute functional channels in a heterologous system. These were the alpha1b (α1b), beta1 (β1), beta3 (β3), alpha2delta (α2δ), and alpha1c (α1c) subunit cDNAs. The alpha1b subunit cDNA has been described by Dubel et al. in Proc. Natl. Acad. Sci. U.S.A 89: 5058-5062 (1992). The beta1 subunit cDNA has been described by Pragnell et al. in FEBS Lett. 291: 253-258 (1991). The beta3 subunit cDNA has been described by Castellano et al. in J. Biol. Chem. 268: 12359-12366 (1993). The alpha2delta subunit cDNA has been described by Kim et al. in Proc. Natl. Acad. Sci. U.S.A. 89: 3251-3255 (1992). The alpha1c subunit cDNA has been described by Koch et al. in J. Biol. Chem. 265: 17786-17791 (1990).
The 6.5 kb cDNA encoding the L-type calcium channel α1c subunit was cloned by PCR amplification from rat heart cDNA using primers 11 (SEQ ID NO: 11, TABLE 1) and 12 (SEQ ID NO:12, TABLE 1). The PCR fragment was subcloned and fully sequenced on both strands to confirm its identity. A clone matching consensus reference sequence M59786 and rat genomic DNA sequences was recombined into the mammalian expression vector pcDNA6.2DEST. Sequences around the recombinogenic region were sequenced to confirm accurate recombination into the expression vector.
L-type Recombinant Cell Line Development. L-type calcium channel expressing HEK-293 cells were created in two stages. Stage 1 was created as follows. The rat α1c, and β1 cDNA expression constructs (2.5 μg each) were co-transfected into human embryonic kidney (HEK-293) cells by Lipofectamine Plus reagent (Invitrogen), as per manufacturer's instructions. 24 hours later, cells were split in limiting dilution into multiple 96-well plates in selection media containing 20 μg/mL blasticidin and 500 μg/mL geneticin, and incubated for 3 weeks at 37° C., 5% CO2, 95% humidity. […]

This passage reports IC50 results from patent US20090298878A1, “OXIME COMPOUNDS AND THE USE THEREOF” (priority 2006, published 2009).

Where a name gives a salt, the structure may show the parent alone.

T1 sequence (Q00975 whole entry): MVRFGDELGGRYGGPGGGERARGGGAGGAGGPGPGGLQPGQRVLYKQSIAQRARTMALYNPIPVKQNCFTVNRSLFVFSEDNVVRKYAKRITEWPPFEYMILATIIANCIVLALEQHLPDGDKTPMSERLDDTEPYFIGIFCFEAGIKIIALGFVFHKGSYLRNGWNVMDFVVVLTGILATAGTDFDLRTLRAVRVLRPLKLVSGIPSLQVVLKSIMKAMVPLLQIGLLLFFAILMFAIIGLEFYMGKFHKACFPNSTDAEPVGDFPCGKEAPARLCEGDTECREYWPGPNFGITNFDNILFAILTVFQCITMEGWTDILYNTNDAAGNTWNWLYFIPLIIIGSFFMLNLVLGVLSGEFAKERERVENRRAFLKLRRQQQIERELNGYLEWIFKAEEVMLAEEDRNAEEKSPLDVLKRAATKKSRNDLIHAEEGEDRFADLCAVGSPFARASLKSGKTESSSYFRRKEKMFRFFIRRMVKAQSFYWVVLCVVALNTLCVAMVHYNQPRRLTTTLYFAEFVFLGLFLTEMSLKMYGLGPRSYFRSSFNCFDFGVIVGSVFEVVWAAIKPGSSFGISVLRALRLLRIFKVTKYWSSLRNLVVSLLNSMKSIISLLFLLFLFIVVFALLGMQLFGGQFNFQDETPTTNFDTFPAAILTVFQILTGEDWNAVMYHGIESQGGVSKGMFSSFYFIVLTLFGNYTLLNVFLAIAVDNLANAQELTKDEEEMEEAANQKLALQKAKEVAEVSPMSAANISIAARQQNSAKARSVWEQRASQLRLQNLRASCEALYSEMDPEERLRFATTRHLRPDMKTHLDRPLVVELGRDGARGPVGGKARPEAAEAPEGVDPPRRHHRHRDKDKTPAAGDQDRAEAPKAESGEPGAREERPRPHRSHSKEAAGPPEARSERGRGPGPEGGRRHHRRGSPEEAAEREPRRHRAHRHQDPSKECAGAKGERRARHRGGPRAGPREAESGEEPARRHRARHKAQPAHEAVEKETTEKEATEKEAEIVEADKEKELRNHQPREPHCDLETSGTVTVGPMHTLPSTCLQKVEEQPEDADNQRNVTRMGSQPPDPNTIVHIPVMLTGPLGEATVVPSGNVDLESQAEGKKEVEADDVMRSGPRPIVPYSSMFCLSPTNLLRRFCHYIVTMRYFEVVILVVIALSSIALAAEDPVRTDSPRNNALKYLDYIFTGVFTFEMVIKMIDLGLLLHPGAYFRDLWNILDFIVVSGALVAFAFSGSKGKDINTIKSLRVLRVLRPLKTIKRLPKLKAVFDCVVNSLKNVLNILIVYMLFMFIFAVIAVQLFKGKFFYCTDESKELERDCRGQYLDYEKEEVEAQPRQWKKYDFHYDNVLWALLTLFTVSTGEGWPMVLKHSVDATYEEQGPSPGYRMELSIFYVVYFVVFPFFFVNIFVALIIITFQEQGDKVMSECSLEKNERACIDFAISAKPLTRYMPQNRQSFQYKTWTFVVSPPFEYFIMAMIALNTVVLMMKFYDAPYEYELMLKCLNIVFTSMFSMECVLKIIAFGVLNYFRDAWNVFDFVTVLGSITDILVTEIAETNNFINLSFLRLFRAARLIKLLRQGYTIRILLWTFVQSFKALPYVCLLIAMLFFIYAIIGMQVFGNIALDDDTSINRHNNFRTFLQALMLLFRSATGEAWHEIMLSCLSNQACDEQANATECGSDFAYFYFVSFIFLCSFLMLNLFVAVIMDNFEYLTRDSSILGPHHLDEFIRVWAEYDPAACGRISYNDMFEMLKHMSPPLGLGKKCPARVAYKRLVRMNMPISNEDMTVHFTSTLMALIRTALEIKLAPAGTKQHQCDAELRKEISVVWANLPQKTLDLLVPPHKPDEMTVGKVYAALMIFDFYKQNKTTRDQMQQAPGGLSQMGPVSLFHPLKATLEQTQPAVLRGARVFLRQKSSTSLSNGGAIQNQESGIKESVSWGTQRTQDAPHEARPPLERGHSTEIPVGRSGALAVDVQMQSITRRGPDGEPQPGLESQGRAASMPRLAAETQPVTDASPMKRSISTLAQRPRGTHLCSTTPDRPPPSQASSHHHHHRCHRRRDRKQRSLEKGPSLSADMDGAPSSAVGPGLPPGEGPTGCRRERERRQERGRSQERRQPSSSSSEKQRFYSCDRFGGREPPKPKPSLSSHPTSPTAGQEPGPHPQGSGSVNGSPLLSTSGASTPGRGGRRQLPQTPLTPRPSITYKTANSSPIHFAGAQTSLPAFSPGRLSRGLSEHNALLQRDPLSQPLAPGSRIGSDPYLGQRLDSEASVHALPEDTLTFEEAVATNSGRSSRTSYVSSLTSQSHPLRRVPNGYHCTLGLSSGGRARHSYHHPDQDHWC
T2 sequence (P22002 whole entry): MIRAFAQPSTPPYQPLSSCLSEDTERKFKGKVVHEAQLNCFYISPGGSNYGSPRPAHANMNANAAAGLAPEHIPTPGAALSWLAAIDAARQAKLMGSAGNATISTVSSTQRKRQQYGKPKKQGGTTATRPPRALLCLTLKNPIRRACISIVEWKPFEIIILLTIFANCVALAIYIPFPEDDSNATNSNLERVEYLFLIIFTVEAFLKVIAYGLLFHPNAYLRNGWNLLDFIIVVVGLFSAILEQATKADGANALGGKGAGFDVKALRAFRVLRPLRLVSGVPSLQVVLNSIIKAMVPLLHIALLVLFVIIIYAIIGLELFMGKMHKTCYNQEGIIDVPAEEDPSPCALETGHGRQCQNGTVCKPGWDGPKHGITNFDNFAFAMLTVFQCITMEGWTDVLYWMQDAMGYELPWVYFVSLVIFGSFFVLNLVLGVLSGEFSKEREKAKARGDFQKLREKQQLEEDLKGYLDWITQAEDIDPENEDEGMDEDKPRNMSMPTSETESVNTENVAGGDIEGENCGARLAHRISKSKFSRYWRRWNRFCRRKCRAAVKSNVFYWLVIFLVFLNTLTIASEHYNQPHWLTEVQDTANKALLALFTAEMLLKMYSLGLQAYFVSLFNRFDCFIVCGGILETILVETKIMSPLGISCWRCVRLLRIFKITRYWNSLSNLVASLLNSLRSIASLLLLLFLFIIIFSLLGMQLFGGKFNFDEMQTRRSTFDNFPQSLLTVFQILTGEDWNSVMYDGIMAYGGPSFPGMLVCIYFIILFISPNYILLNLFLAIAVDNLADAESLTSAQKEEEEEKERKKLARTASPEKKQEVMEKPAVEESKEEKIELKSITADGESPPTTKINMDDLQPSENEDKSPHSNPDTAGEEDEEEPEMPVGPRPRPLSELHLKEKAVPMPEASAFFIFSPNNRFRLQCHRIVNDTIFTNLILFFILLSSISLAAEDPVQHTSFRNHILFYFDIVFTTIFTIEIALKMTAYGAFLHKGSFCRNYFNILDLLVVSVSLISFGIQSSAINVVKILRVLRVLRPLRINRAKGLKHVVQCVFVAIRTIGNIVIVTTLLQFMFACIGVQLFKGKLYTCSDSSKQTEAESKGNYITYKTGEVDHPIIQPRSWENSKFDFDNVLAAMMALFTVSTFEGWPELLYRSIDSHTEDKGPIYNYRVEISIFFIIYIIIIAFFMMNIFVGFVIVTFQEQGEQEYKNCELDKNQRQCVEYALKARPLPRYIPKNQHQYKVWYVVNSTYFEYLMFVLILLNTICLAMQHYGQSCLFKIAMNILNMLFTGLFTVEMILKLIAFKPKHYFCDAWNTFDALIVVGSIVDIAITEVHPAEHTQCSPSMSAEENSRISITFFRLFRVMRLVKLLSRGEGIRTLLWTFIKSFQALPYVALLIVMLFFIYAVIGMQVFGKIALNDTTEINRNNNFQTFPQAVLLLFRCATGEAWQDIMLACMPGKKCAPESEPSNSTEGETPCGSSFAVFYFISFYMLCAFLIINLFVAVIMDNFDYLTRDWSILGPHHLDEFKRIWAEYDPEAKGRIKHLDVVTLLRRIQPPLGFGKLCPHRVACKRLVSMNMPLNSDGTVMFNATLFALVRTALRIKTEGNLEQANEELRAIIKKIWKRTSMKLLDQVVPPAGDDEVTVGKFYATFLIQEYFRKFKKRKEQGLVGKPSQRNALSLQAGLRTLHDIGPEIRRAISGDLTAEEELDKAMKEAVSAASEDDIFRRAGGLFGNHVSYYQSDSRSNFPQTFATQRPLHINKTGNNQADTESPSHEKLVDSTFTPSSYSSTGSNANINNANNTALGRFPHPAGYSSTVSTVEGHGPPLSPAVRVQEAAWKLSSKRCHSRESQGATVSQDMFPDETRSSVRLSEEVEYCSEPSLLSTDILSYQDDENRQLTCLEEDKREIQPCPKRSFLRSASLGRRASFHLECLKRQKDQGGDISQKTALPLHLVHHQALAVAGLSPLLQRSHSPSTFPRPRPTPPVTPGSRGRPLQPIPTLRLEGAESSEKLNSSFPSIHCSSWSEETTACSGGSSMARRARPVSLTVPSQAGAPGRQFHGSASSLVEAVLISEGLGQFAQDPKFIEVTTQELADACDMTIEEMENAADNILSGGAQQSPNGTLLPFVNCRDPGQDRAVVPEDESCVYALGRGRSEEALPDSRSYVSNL

For the compound `CN[C@@H](CC(C)C)C(=O)N1CCC(=NOCc2ccc(Cl)cc2)CC1` [Example 4, 1-((S)-4-Methyl-2-methylaminopentanoyl)piperidin-4-one O-(4-chlorobenzyl)oxime hydrochloride], the IC50 was found to be 860 nM in test [1] and 15200 nM in test [2].

Consider `CC(C)C[C@H](N)C(=O)N1CCC(=NOCc2cccc(C(F)(F)F)c2)CC1` [Example 8, 1-((S)-2-Amino-4-methylpentanoyl)piperidin-4-one O-(3-trifluoromethylbenzyl)oxime hydrochloride], for which the results for the IC50 in test [1] and in test [2] were 690 nM and 9600 nM, respectively.

On to `Fc1ccc(C(CCCN2CCC(=NOCc3cccc(C(F)(F)F)c3)CC2)c2ccc(F)cc2)cc1` [Example 12, 1-[4,4-Bis-(4-fluorophenyl)butyl]piperidin-4-one O-(3-trifluoromethylbenzyl)oxime oxalate], for which the half-inhibitory concentration (IC50) in test [1] is 820 nM; in test [2], above 20000 nM.

On to `Fc1ccc(C(CCCN2CCC(=NOCc3cccnc3)CC2)c2ccc(F)cc2)cc1` [Example 16, 1-[4,4-Bis-(4-fluorophenyl)butyl]piperidin-4-one O-pyridin-3-ylmethyloxime dioxalate], for which the IC50 in test [1] came to 260 nM; in test [2], 6600 nM.

Take `O=C(CCC(c1ccc(F)cc1)c1ccc(F)cc1)N1CCC(=NOCc2ccncc2)CC1` [Example 19, 1-[4,4-Bis-(4-fluorophenyl)butyryl]piperidin-4-one O-pyridin-4-ylmethyloxime oxalate]: the results for the half-inhibitory concentration (IC50) in test [1] and in test [2] were 760 nM and 4900 nM, respectively.

As for `CC(C)C[C@H](N)CC(=O)N1CCC(=NOCc2cccc(C(F)(F)F)c2)CC1` [Example 24, 1-((S)-3-Amino-5-methylhexanoyl)piperidin-4-one O-(3-trifluoromethylbenzyl)oxime oxalate], the IC50 in test [1] was 990 nM; in test [2] it was 7200 nM.

On to `O=C(CCC(c1ccc(F)cc1)c1ccc(F)cc1)N1CCC(=NOCc2ccc(C(F)(F)F)cc2)CC1` [Example 30, 1-[4,4-Bis-(4-fluorophenyl)butyryl]piperidin-4-one O-(4-trifluoromethylbenzyl)oxime], for which the values for the concentration for half-maximal inhibition (IC50) in test [1] and in test [2] were 330 nM and above 20000 nM, respectively.

For `CCCCc1ccc(S(=O)(=O)N2CCC(=NOCc3cccc(C(F)(F)F)c3)CC2)cc1` [Example 50, 1-(4-Butyl-benzenesulfonyl)piperidin-4-one O-(3-trifluoromethylbenzyl)oxime], the figures for the IC50 in test [1] and in test [2] were 430 nM and above 20000 nM, respectively.

As to `CCCCc1ccc(S(=O)(=O)N2CCC(=NOCc3cccc(C#N)c3)CC2)cc1` [Example 77, 3-[1-(4-Butylbenzenesulfonyl)piperidin-4-ylideneaminooxymethyl]benzonitrile], the IC50 is 220 nM in test [1] and above 20000 nM in test [2].

`N#Cc1cc(CON=C2CCN(C(c3ccc(F)cc3)c3ccc(F)cc3)CC2)ccc1F` [Example 182, 5-((1-(Bis(4-fluorophenyl)methyl)piperidin-4-ylideneaminooxy)methyl)-2-fluorobenzonitrile hydrochloride]: the 50% inhibitory concentration (IC50) in test [1] was 690 nM; in test [2] it was above 20000 nM.

As to `O=S(=O)(c1cccc(C(F)(F)F)c1)N1CCC(=NOCC2CCCCC2)CC1` [Example 277, 1-(3-(Trifluoromethyl)phenylsulfonyl)piperidin-4-one O-cyclohexylmethyl oxime], the IC50 in test [1] is 610 nM; in test [2], above 20000 nM.

With `O=c1ccc(CON=C2CCN(S(=O)(=O)c3ccc(OC(F)(F)F)cc3)CC2)cn1Cc1ccc(F)cc1` [Example 295, 1-(4-Fluorobenzyl)-5-((1-(4-(trifluoromethoxy)phenylsulfonyl)piperidin-4-ylideneaminooxy)methyl)pyridin-2(1H)-one], the 50% inhibitory concentration (IC50) in test [1] is 160 nM; in test [2], above 20000 nM.

As for `O=S(=O)(c1ccc(OC(F)(F)F)cc1)N1CCC(=NOCc2nc3cc(Cl)cnc3[nH]2)CC1` [Example 308, 1-(4-(Trifluoromethoxy)phenylsulfonyl)piperidin-4-one O-(6-chloro-3H-imidazo[4,5-b]pyridin-2-yl)methyl oxime], the IC50 in test [1] is 360 nM; in test [2], above 20000 nM.

Consider `CCCCCC(C)ON=C1CCN(S(=O)(=O)c2cccc(C(F)(F)F)c2)CC1` (stereo not shown) [Example 369, 1-(3-(Trifluoromethyl)phenylsulfonyl)piperidin-4-one O-heptan-2-yl oxime], for which the IC50 was 80 nM in test [1] and above 20000 nM in test [2].
